Target: T1, PGF synthase (PGFS) (Homo sapiens, UniProt P42330)
T1 construct: made in house
T1 sequence (P42330 1-323): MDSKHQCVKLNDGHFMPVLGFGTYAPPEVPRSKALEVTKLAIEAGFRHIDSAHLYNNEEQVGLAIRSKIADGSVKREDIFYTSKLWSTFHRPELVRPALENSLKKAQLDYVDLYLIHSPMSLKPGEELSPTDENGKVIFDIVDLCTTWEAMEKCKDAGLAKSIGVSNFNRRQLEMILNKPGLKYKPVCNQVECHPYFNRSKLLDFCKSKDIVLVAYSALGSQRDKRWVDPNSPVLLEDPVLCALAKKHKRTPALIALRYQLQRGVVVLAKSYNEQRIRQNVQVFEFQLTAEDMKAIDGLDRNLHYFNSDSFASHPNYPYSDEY
Assay: Test on PGF synthase (spectrophotometric, 340 nm, 9,10-phenanthrenequinone/β-NADPH)
Assay type: biochemical
Procedure: The enzyme PGFS is obtained as disclosed in FR-A-02/05067, at a concentration of 0.5 mg/ml, in suspension in an appropriate medium, and is blocked at −80° C. For the requirements of the test, this suspension is defrosted and stored in ice.
Furthermore, a Tris 100 mM, pH=6.5, buffer comprising 20 μM of 9,10-phenanthrenequinone*(P2896, Sigma-Aldrich, L'isle D'Abeau Chesne, BP 701, 38297, Saint Quentin Fallavier) and 100 μM of β-NADPH (N1630, Sigma-Aldrich, L'isle D'Abeau Chesne, BP 701, 38297, Saint Quentin Fallavier) is prepared in a brown bottle (exclusion of light). *A mother solution assaying 1 mM is prepared in absolute ethanol and is brought to 40° C.; the bottle is placed in an ultrasonic bath to facilitate the dissolution of the product.
0.950 ml of this buffer (brought beforehand to 37° C.) is introduced into the cell of a spectrophotometer (Perkin-Elmer, Lambda 2) thermostatically controlled at 37° C., the wavelength of which for the measurement is adjusted to 340 nm. 0.05 ml of enzymatic suspension at 37° C. is introduced into the cell concomitantly with the recording (corresponding to a fall in optical density at 340 nm). The maximum rate of reaction is noted.

IC50: 50 to 100 µM
Compound: C/C(=N/OCC(=O)Nc1ccccc1)c1cccs1 [Compound 1, N-Phenyl-2({[(1Z)-1-(thien-2-yl)-ethylidene]amino}oxy)acetamide]

Source: patent US7396525B2, “Care/makeup compositions comprising a 2-alkylideneaminooxyacetamide compound for stimulating the growth of the hair or eyelashes and/or slowing loss thereof” (L'Oreal, priority 2003, dated 2008)
